# Results taken from patent US20250170105A1, “ASSOCIATION WITH ANTIBIOTIC ACTIVITY, PHARMACEUTICAL COMPOSITIONS CONTAINING IT AND THEIR USE IN THE TREATMENT OF INFECTIONS” (VETAGRO INTERNATIONAL S.R.L., priority 2022, published 2025).
# Like-named read-outs stand apart in the source and are kept apart here.
# Key:
# Format in all cases: cell-based
# Escherichia coli K88 97 [1] = experiment: Combination test, checkerboard, % inhibition; settings: E. coli 97
# Protocol: (§1) Strains were stored at −80° C. in appropriate media with glycerol, thawed and cultured according to conventional practices.
# (§2) The tests were conducted using the microdilution method in a 96-well plate to be microtitered with the medium and culture conditions appropriate for the strains. Bacterial strains (10^5-10^6 CFU/ml) were incubated with the compounds to be tested, while control strains, when necessary, were grown in media containing 3.5% ethanol to exclude an inhibitory effect of any ethanol present in the stock solutions. After incubation, MIC was defined as the lowest concentration resulting in zero absorbance at 630 nm, recorded with Varioskan® LUX Multimode Microplat Reader (Thermo Fisher Scientific). For each test, the percentage of inhibition (%) was calculated with respect to the relative control.
# (§3) After phase 1, the strains were tested with associations at sub-effective doses of AB and OA or NIC in a 2×2 checkerboard model. Specifically, two sub-effective doses of AB were associated with two sub-effective doses of OA or NIC (half and one-quarter of MICs) as shown in FIG. 1.
# (§4) The % indicate the percentage of inhibition (compounds alone and combinations).
# (§5) Tables 4 to 7 show the % of inhibition of the components of the associations alone, at the effective concentrations shown in Tables 2 and 3, and at the sub-effective concentrations (half and one-quarter of MICs), and the % of inhibition of the associations.
# Streptococcus suis 701 [2] = experiment: Combination test, checkerboard, % inhibition; settings: S. suis 701
# Protocol: as §1, §2, §3, §4, §5
# Escherichia Coli K88 95 [3] = experiment: Combination test, checkerboard, % inhibition; settings: E. coli 95
# Protocol: as §1, §2, §3, §4, §5
# Streptococcus suis 702 [4] = experiment: Combination test, checkerboard, % inhibition; settings: S. suis 702
# Protocol: as §1, §2, §3, §4, §5
# Escherichia coli K88 97 [5] = experiment: Individual tests, microdilution MIC; settings: for MIC: Escherichia coli
# Protocol: as §1
# (§6) The ABs shown in Tables 2 and 3 below, all obtained from Aplha Aesar, were tested. The OAs used are shown in Tables 2 and 3 below, all obtained from Merck. The stock solutions were prepared appropriately and in appropriate way and media for the different strains and could contain 3.5% ethanol to increase solubility.
# as §2
# (§7) ABs were tested in the range 64-0.13 ppm, OAs in the range […] and NICs in the range 7.5-0.06 nM.
# Streptococcus suis 701 [6] = experiment: Individual tests, microdilution MIC
# Protocol: as §1, §6, §2, §7
# Escherichia Coli K88 95 [7] = experiment: Individual tests, microdilution MIC; settings: for MIC: Escherichia coli
# Protocol: as §1, §6, §2, §7
# Streptococcus suis 702 [8] = experiment: Individual tests, microdilution MIC
# Protocol: as §1, §6, §2, §7
# [9] = K8897, E. coli 97, read-out: MIC values
# [10] = Streptococcus suis, S. suis 701, read-out: MIC values
# [11] = COLIK8895, E. coli 95, read-out: MIC values
# [12] = Streptococcus suis, S. suis 702, read-out: MIC values
# [13] = COLIK8895, read-out: MIC values
molecule,measurement,setting,value
"Cc1ccc(C(C)C)c(O)c1 [Thymol, 2-isopropyl-5-methylphenol]",% inhibition,Escherichia coli K88 97 [1]; THY 0.47 mM alone,8%
same,% inhibition,Escherichia coli K88 97 [1]; THY 0.94 mM alone,12%
same,% inhibition,Streptococcus suis 701 [2]; THY 0.47 mM alone,0%
same,% inhibition,Streptococcus suis 701 [2]; THY 0.94 mM alone,39%
same,% inhibition,Escherichia Coli K88 95 [3]; THY 0.47 mM alone,7%
same,% inhibition,Escherichia Coli K88 95 [3]; THY 0.94 mM alone,18%
same,% inhibition,Streptococcus suis 702 [4]; THY 0.47 mM alone,10%
same,% inhibition,Streptococcus suis 702 [4]; THY 0.94 mM alone,36%
same,MIC,Escherichia coli K88 97 [5]; [9],1.87 mM
same,MIC,Streptococcus suis 701 [6]; [10],1.87 mM
same,MIC,Escherichia Coli K88 95 [7]; [11],1.87 mM
same,MIC,Streptococcus suis 702 [8]; [12],1.87 mM
"O=C(O)c1ccccc1 [Benzoic Acid, benzoic acid]",% inhibition,Escherichia coli K88 97 [1]; BEN 12.5 mM alone,79%
same,% inhibition,Escherichia coli K88 97 [1]; BEN 25 mM alone,97%
same,% inhibition,Streptococcus suis 701 [2]; BEN 12.5 mM alone,22%
same,% inhibition,Streptococcus suis 701 [2]; BEN 25 mM alone,51%
same,% inhibition,Escherichia Coli K88 95 [3]; BEN 12.5 mM alone,63%
same,% inhibition,Escherichia Coli K88 95 [3]; BEN 25 mM alone,90%
same,% inhibition,Streptococcus suis 702 [4]; BEN 6.25 mM alone,21%
same,% inhibition,Streptococcus suis 702 [4]; BEN 12.5 mM alone,39%
same,MIC,"Escherichia coli K88 97 [5]; K8897, read-out: MIC values",50 mM
same,MIC,"Streptococcus suis 701 [6]; Streptococcus suis, 701, read-out: MIC values",50 mM
same,MIC,Escherichia Coli K88 95 [7]; [13],50 mM
same,MIC,"Streptococcus suis 702 [8]; Streptococcus suis, 702, read-out: MIC values",25 mM
CC1(C)S[C@@H]2[C@H](NC(=O)[C@H](N)c3ccc(O)cc3)C(=O)N2[C@H]1C(=O)O [Amoxicillin],MIC,Escherichia coli K88 97 [5]; [9],> 64 µg/mL
same,MIC,Streptococcus suis 701 [6]; [10],0.5 µg/mL
same,MIC,Escherichia Coli K88 95 [7]; [11],> 64 µg/mL
same,MIC,Streptococcus suis 702 [8]; [12],0.5 µg/mL
CC1(C)S[C@@H]2[C@H](NC(=O)[C@H](N)c3ccccc3)C(=O)N2[C@H]1C(=O)O [Ampicillin],MIC,Streptococcus suis 701 [6]; [10],0.25 µg/mL
same,MIC,Streptococcus suis 702 [8]; [12],0.25 µg/mL
CS(=O)(=O)c1ccc([C@@H](O)[C@@H](CF)NC(=O)C(Cl)Cl)cc1 [Florfenicol],MIC,Escherichia coli K88 97 [5]; [9],> 64 µg/mL
same,MIC,Streptococcus suis 701 [6]; [10],2 µg/mL
same,MIC,Escherichia Coli K88 95 [7]; [11],16 µg/mL
same,MIC,Streptococcus suis 702 [8]; [12],2 µg/mL
CO/N=C(\C(=O)N[C@@H]1C(=O)N2C(C(=O)O)=C(CSC(=O)c3ccco3)CS[C@H]12)c1csc(N)n1 [Ceftiofur],MIC,Escherichia coli K88 97 [5]; [9],2 µg/mL
same,MIC,Streptococcus suis 701 [6]; [10],0.5 µg/mL
same,MIC,Escherichia Coli K88 95 [7]; [11],1 µg/mL
same,MIC,Streptococcus suis 702 [8]; [12],0.5 µg/mL
"C=CCc1ccc(O)c(OC)c1 [Eugenolo, eugenol]",% inhibition,Escherichia coli K88 97 [1]; EUG 0.94 mM alone,26%
same,% inhibition,Escherichia coli K88 97 [1]; EUG 1.87 mM alone,34%
same,% inhibition,Streptococcus suis 701 [2]; EUG 0.94 mM alone,6%
same,% inhibition,Streptococcus suis 701 [2]; EUG 1.87 mM alone,27%
same,% inhibition,Escherichia Coli K88 95 [3]; EUG 0.94 mM alone,31%
same,% inhibition,Escherichia Coli K88 95 [3]; EUG 1.87 mM alone,44%
same,% inhibition,Streptococcus suis 702 [4]; EUG 0.94 mM alone,9%
same,% inhibition,Streptococcus suis 702 [4]; EUG 1.87 mM alone,12%
same,MIC,Escherichia coli K88 97 [5]; [9],3.75 mM
same,MIC,Streptococcus suis 701 [6]; [10],3.75 mM
same,MIC,Escherichia Coli K88 95 [7]; [11],3.75 mM
same,MIC,Streptococcus suis 702 [8]; [12],3.75 mM
C[C@H]1c2cccc(O)c2C(=O)C2=C(O)[C@]3(O)C(=O)C(C(N)=O)=C(O)[C@@H](N(C)C)[C@@H]3[C@@H](O)[C@@H]21 [Doxycycline],MIC,Streptococcus suis 701 [6]; [10],16 µg/mL
same,MIC,Streptococcus suis 702 [8]; [12],0.5 µg/mL
COc1cc(Cc2cnc(N)nc2N)cc(OC)c1OC [Trimethoprim],MIC,Escherichia coli K88 97 [5]; [9],> 32 µg/mL
same,MIC,Escherichia Coli K88 95 [7]; [11],> 32 µg/mL
Penicillin,MIC values,Streptococcus suis 701 [6]; S. suis 701,0.13 ppm
same,MIC values,Streptococcus suis 702 [8]; S. suis 702,0.13 ppm
CCN1CCN(c2cc3c(cc2F)c(=O)c(C(=O)O)cn3C2CC2)CC1 [Enrofloxacin],MIC,Escherichia coli K88 97 [5]; [9],2 µg/mL
same,MIC,Streptococcus suis 701 [6]; [10],0.5 µg/mL
same,MIC,Escherichia Coli K88 95 [7]; [11],2 µg/mL
same,MIC,Streptococcus suis 702 [8]; [12],0.5 µg/mL
neomycin [reference compound],% inhibition,Streptococcus suis 701 [2]; NEO 2 ppm alone,6%
same,% inhibition,Streptococcus suis 701 [2]; NEO 4 ppm alone,15%
same,% inhibition,Streptococcus suis 702 [4]; NEO 4 ppm alone,10%
same,% inhibition,Streptococcus suis 702 [4]; NEO 8 ppm alone,16%
same,MIC values,Escherichia coli K88 97 [5]; E. coli 97,>64 ppm
same,MIC values,Streptococcus suis 701 [6]; S. suis 701,8 ppm
same,MIC values,Escherichia Coli K88 95 [7]; E. coli 95,>64 ppm
same,MIC values,Streptococcus suis 702 [8]; S. suis 702,16 ppm
"C/C=C/C=C/C(=O)O [Sorbic Acid, sorbic acid]",% inhibition,Escherichia coli K88 97 [1]; SOR 12.5 mM alone,79%
same,% inhibition,Escherichia coli K88 97 [1]; SOR 25 mM alone,93%
same,% inhibition,Streptococcus suis 701 [2]; SOR 25 mM alone,30%
same,% inhibition,Streptococcus suis 701 [2]; SOR 50 mM alone,56%
same,% inhibition,Escherichia Coli K88 95 [3]; SOR 12.5 mM alone,69%
same,% inhibition,Escherichia Coli K88 95 [3]; SOR 25 mM alone,85%
same,% inhibition,Streptococcus suis 702 [4]; SOR 12.5 mM alone,26%
same,% inhibition,Streptococcus suis 702 [4]; SOR 25 mM alone,38%
same,MIC,Escherichia coli K88 97 [5]; [9],50 mM
same,MIC,Streptococcus suis 701 [6]; [10],100 mM
same,MIC,Escherichia Coli K88 95 [7]; [11],50 mM
same,MIC,Streptococcus suis 702 [8]; [12],50 mM
CC[C@H]1OC(=O)C[C@@H](O)[C@H](C)[C@@H](O[C@@H]2O[C@H](C)[C@@H](O[C@H]3C[C@@](C)(O)[C@@H](O)[C@H](C)O3)[C@H](N(C)C)[C@H]2O)[C@@H](CC=O)C[C@@H](C)C(=O)/C=C/C(C)=C/[C@@H]1CO[C@@H]1O[C@H](C)[C@@H](O)[C@@H](OC)[C@H]1OC [Tylosin],MIC,Streptococcus suis 701 [6]; [10],2 µg/mL
same,MIC,Streptococcus suis 702 [8]; [12],> 64 µg/mL
C=C[C@]1(C)C[C@@H](OC(=O)CSCCN(CC)CC)[C@]2(C)[C@H](C)CC[C@]3(CCC(=O)[C@H]32)[C@@H](C)[C@@H]1O [Tiamulin],MIC,Streptococcus suis 701 [6]; [10],4 µg/mL
same,MIC,Streptococcus suis 702 [8]; [12],1 µg/mL
colistin [reference compound],% inhibition,Escherichia coli K88 97 [1]; COL 4 ppm alone,10%
same,% inhibition,Escherichia coli K88 97 [1]; COL 8 ppm alone,12%
same,% inhibition,Escherichia coli K88 97 [1]; COL 16 ppm alone,29%
same,% inhibition,Escherichia Coli K88 95 [3]; COL 4 ppm alone,3%
same,% inhibition,Escherichia Coli K88 95 [3]; COL 8 ppm alone,8%
same,% inhibition,Escherichia Coli K88 95 [3]; COL 16 ppm alone,40%
same,MIC values,Escherichia coli K88 97 [5]; E. coli 97,32 ppm
same,MIC values,Escherichia Coli K88 95 [7]; E. coli 95,32 ppm
"O=C(O)CC(O)(CC(=O)O)C(=O)O [Citric acid, citric acid]",% inhibition,Streptococcus suis 701 [2]; CIT 12.5 mM alone,18%
same,% inhibition,Streptococcus suis 701 [2]; CIT 25 mM alone,36%
same,% inhibition,Streptococcus suis 702 [4]; CIT 6.25 mM alone,12%
same,% inhibition,Streptococcus suis 702 [4]; CIT 12.5 mM alone,43%
same,MIC,Escherichia coli K88 97 [5]; [9],> 100 mM
same,MIC,Streptococcus suis 701 [6]; [10],50 mM
same,MIC,Escherichia Coli K88 95 [7]; [11],> 100 mM
same,MIC,Streptococcus suis 702 [8]; [12],25 mM
Cc1cc(NS(=O)(=O)c2ccc(N)cc2)no1 [Sulfamethoxazole],MIC,Escherichia coli K88 97 [5]; [9],> 608 µg/mL
same,MIC,Escherichia Coli K88 95 [7]; [11],> 608 µg/mL
"CN(C)[C@@H]1C(O)=C(C(N)=O)C(=O)[C@@]2(O)C(O)=C3C(=O)c4c(O)cccc4[C@@](C)(O)[C@H]3C[C@@H]12 [Tetracycline, tetracycline, reference compound]",% inhibition,Streptococcus suis 701 [2]; TET 16 ppm alone,11%
same,% inhibition,Streptococcus suis 701 [2]; TET 32 ppm alone,28%
same,% inhibition,Streptococcus suis 702 [4]; TET 0.5 ppm alone,20%
same,% inhibition,Streptococcus suis 702 [4]; TET 1 ppm alone,27%
same,MIC,Escherichia coli K88 97 [5]; [9],> 64 µg/mL
same,MIC,Streptococcus suis 701 [6]; [10],64 µg/mL
same,MIC,Escherichia Coli K88 95 [7]; [11],> 64 µg/mL
same,MIC,Streptococcus suis 702 [8]; [12],2 µg/mL
"CCCCCC(=O)O [Hexanoic acid, hexanoic acid]",% inhibition,Escherichia coli K88 97 [1]; HEX 12.5 mM alone,65%
same,% inhibition,Escherichia coli K88 97 [1]; HEX 25 mM alone,83%
same,% inhibition,Escherichia Coli K88 95 [3]; HEX 12.5 mM alone,76%
same,% inhibition,Escherichia Coli K88 95 [3]; HEX 25 mM alone,83%
same,MIC,"Escherichia coli K88 97 [5]; K8897, read-out: MIC values",50 mM
same,MIC,Escherichia Coli K88 95 [7]; [13],50 mM
